# Measured values: patent publication US8828992B2, “Substituted azole derivatives, pharmaceutical composition containing the derivatives, and method for treating Parkinson's disease using the same” (priority 2009, dated 2014)
# Target: T1, Monoamineoxidase B type human-derived enzyme (Homo sapiens, UniProt P27338)
# T1 sequence (P27338 1-520): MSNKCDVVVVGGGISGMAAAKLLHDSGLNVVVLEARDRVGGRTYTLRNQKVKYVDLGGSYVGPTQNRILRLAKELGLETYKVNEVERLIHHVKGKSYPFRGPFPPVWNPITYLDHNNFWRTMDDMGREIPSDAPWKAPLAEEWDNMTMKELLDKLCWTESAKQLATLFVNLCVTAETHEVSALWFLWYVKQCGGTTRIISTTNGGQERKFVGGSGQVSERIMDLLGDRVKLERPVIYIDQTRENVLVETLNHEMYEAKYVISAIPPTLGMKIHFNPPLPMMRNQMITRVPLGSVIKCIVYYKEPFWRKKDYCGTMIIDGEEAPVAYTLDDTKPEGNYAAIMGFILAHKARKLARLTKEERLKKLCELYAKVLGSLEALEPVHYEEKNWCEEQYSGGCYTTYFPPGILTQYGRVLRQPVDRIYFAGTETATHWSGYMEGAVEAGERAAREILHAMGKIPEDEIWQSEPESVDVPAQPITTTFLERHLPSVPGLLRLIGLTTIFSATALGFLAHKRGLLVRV
# Experiment: Inhibitory effects on the activity of MAO-B (Amplex Red fluorescence, benzylamine substrate)
# Format: biochemical
# Settings: read-out: Inhibitory effects (%) on the activity of MAO-B
# Outline: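 Human MAO-B, diluted 1:200 in 0.05 M sodium phosphate pH 7.4, was pre-incubated with compound for 30 min. It was then mixed 1:1 with working buffer holding 400 μM Amplex Red, 2 U/ml HRP and 2 mM benzylamine (working-buffer levels). Fluorescence (Ex 563/Em 587 nm) was read over 30 min.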
row,Molecule,inhibition at 0.01 µM [%]
1,"NC(=O)OCc1cc(-c2ccc(OCSC(F)(F)F)cc2)no1 [Example 58, carbamic acid 3-(4-trifluoromethylsulfanylmethoxy-phenyl)-isoxazol-5-ylmethyl ester]",88.1
2,"NC(=O)OCc1cc(-c2ccc(NCc3ccoc3)cc2)no1 [Example 111, carbamic acid 3-{4-[(furan-3-ylmethyl)-amino]-phenyl}-isoxazol-5-ylmethyl ester]",69
3,"CCCCOc1ccc(-c2cc(COC(N)=O)on2)cc1 [Example 43, carbamic acid 3-(4-butoxy-phenyl)-isoxazol-5-ylmethyl ester]",96.8
4,"NC(=O)OCc1cc(-c2ccc(NCc3cccs3)cc2)no1 [Example 110, carbamic acid 3-{4-[(thiophen-2-ylmethyl)-amino]-phenyl}-isoxazol-5-ylmethyl ester]",80.8
5,"NC(=O)OCc1cc(-c2ccc(OCc3cccnc3)cc2)no1 [Example 66, Carbamic acid 3-[4-(pyridin-3-ylmethoxy)-phenyl]-isoxazol-5-ylmethyl ester]",87.3
6,"NC(=O)OCc1cc(-c2ccc(OCc3ccccc3)cc2)ns1 [Example 3, carbamic acid 3-(4-benzyloxy-phenyl)-isothiazol-5-ylmethyl ester]",95.2
7,"NC(=O)OCc1cc(-c2ccc(NCc3ccccc3)cc2)no1 [Example 74, Carbamic acid 3-(4-benzylamino-phenyl)-isoxazol-5-ylmethyl ester]",84.5

# Same assay, conditions: treatment concentration 10 nM
row,Molecule,Inhibitory effects (%) on the activity of MAO-B [%]
1,[carbamic acid 3-(4-methylsulfanylmethoxy-phenyl)-isoxazol-5-ylmethyl ethyl ester [Example 48],48.4

# Same assay, conditions: treatment concentration 10 nM; read-out: Inhibitory effects (%) on the activity of MAO-B
row,Molecule,inhibition at 0.01 µM [%]
1,"Cc1cccc(CNc2ccc(-c3cc(COC(N)=O)on3)cc2)c1 [Example 101, Carbamic acid 3-[4-(3-methyl-benzylamino)-phenyl]-isoxazol-5-ylmethyl ester]",80.5
2,"NC(=O)OCc1cc(-c2ccc(NCc3c(F)cccc3F)cc2)no1 [Example 79, Carbamic acid 3-[4-(2,6-difluoro-benzylamino)-phenyl]-isoxazol-5-ylmethyl ester]",84.6
3,"Fc1cccc(COc2ccc(-c3cc(Cn4ccnc4)on3)cc2)c1 [Example 142, 3-[4-(3-fluoro-benzyloxy)-phenyl]-5-imidazol-1-ylmethyl-isoxazole]",89.5
4,"NC(=O)OCc1cc(-c2ccc(OCc3c(F)cccc3F)cc2)no1 [Example 14, carbamic acid 3-[4-(2,6-difluoro-benzyloxy)-phenyl]-isoxazol-5-ylmethyl ester]",96
5,"Cc1noc(C)c1COc1ccc(-c2cc(COC(N)=O)on2)cc1 [Example 72, carbamic acid 3-[4-(3,5-dimethyl-isoxazol-4-ylmethoxy)-phenyl]-isoxazol-5-ylmethyl ester]",87.9
6,"NC(=O)OCc1cc(-c2ccc(OCc3ccccc3F)cc2)no1 [Example 11, carbamic acid 3-[4-(2-fluoro-benzyloxy)-phenyl]-isoxazol-5-ylmethyl ester]",101
7,"c1ccc(COc2ccc(-c3cc(CN4CCCC4)on3)cc2)cc1 [Example 148, 3-(4-benzyloxy-phenyl)-5-pyrrolidin-1-ylmethyl-isoxazole]",79
8,"COc1ccccc1CNc1ccc(-c2cc(COC(N)=O)on2)cc1 [Example 104, Carbamic acid 3-[4-(2-methoxy-benzylamino)-phenyl]-isoxazol-5-ylmethyl ester]",89.1
9,"NC(=O)OCc1cc(-c2ccc(NCc3ccc(F)cc3F)cc2)no1 [Example 81, Carbamic acid 3-[4-(2,4-difluoro-benzylamino)-phenyl]-isoxazol-5-ylmethyl ester]",91.4
10,"NC(=O)OCc1cc(-c2ccc(NCc3ccc(F)c(F)c3)cc2)no1 [Example 84, Carbamic acid 3-[4-(3,4-difluoro-benzylamino)-phenyl]-isoxazol-5-ylmethyl ester]",88.5

# Test system: MPTP-induced mouse model
# Experiment: Tail suspension test in MPTP-induced mouse model of Parkinson's disease
# Format: in vivo
# Settings: Mus musculus, 168 h; administration concentration 10 (10 mg/kg), oral, 7 days after MPTP; % of control group (Sham); read-out: Mobility (%)
# Description: A. MPTP (1-methyl-4-phenyl-1,2,3,6-tetrahydropyridine) and drug treatment MPTP (20 mg/kg, free base; Sigma, St. louis, Mo.) was administered to an 8 week old (20-25 g) male C57BL/6 test mouse intraperitoneally three times a day at the interval of 2 hours to construct a model (Breidert et al., 2002; Lichuan Yang, Shuei Sugama, Jason W. Chirichigno, Jason Gregorio, Stefan Lorenzl, Dong H. Shin, Susan E. Browne, Yoshinori Shimizu, Tong H. Joh, M. Flint Beal, l and David S. Alber. (2003) Minocycline Enhances MPTP Toxicity to Dopaminergic Neurons. J Neurosci Res. 74:278-285). In order to observe the protective effects of the compound as a candidate drug, the compound was dissolved in a solution containing 10% dimethylsulfoxide (DMSO), 10% Cremophor, and 40% polyethyleneglycol (PEG), […] treatment. Rasagiline as a control drug was also dissolved in the same solution, and the resulting solution was administered at the same doses in the same manner as above. A control group (Sham) in which MPTP was not administered was constructed by intraperitoneally administering saline solution to the group instead of MPTP in the same manner as above and orally administering the same solution 1 hour before and after PBS treatment.
# A tail suspension test was performed in order to measure the induction degree of behavioral dysfunctions in accordance with administration of MPTP and a drug. At 7 days after administration of the drug, a round stainless steel rod (width: 1 cm) was affixed to a cage (width: 16 cm, height: 40 cm) 35 cm above from the surface shielded by black wooden structures in the left and right sides to perform experiments. The time for which the animal moved for a total period of 6 minutes was measured in seconds to evaluate the drug action.
# Mobility refers to an expression of the measurement of the time for which the animal moved with its tail hung high as a percentage compared to the measurement of a control group.
row,Molecule,response vs control in vivo at 10 mg/kg [%]
1,"Cc1cccc(CNc2ccc(-c3cc(COC(N)=O)on3)cc2)c1 [Example 101, Carbamic acid 3-[4-(3-methyl-benzylamino)-phenyl]-isoxazol-5-ylmethyl ester]",78.3
2,"NC(=O)OCc1cc(-c2ccc(OCSC(F)(F)F)cc2)no1 [Example 58, carbamic acid 3-(4-trifluoromethylsulfanylmethoxy-phenyl)-isoxazol-5-ylmethyl ester]",98.9
3,"NC(=O)OCc1cc(-c2ccc(NCc3c(F)cccc3F)cc2)no1 [Example 79, Carbamic acid 3-[4-(2,6-difluoro-benzylamino)-phenyl]-isoxazol-5-ylmethyl ester]",99.4
4,"Fc1cccc(COc2ccc(-c3cc(Cn4ccnc4)on3)cc2)c1 [Example 142, 3-[4-(3-fluoro-benzyloxy)-phenyl]-5-imidazol-1-ylmethyl-isoxazole]",101
5,"NC(=O)OCc1cc(-c2ccc(NCc3ccoc3)cc2)no1 [Example 111, carbamic acid 3-{4-[(furan-3-ylmethyl)-amino]-phenyl}-isoxazol-5-ylmethyl ester]",78.8
6,"NC(=O)OCc1cc(-c2ccc(OCc3c(F)cccc3F)cc2)no1 [Example 14, carbamic acid 3-[4-(2,6-difluoro-benzyloxy)-phenyl]-isoxazol-5-ylmethyl ester]",75.3
7,"Cc1noc(C)c1COc1ccc(-c2cc(COC(N)=O)on2)cc1 [Example 72, carbamic acid 3-[4-(3,5-dimethyl-isoxazol-4-ylmethoxy)-phenyl]-isoxazol-5-ylmethyl ester]",91.4
8,"NC(=O)OCc1cc(-c2ccc(OCc3ccccc3F)cc2)no1 [Example 11, carbamic acid 3-[4-(2-fluoro-benzyloxy)-phenyl]-isoxazol-5-ylmethyl ester]",82.2
9,"c1ccc(COc2ccc(-c3cc(CN4CCCC4)on3)cc2)cc1 [Example 148, 3-(4-benzyloxy-phenyl)-5-pyrrolidin-1-ylmethyl-isoxazole]",95.9
10,"COc1ccccc1CNc1ccc(-c2cc(COC(N)=O)on2)cc1 [Example 104, Carbamic acid 3-[4-(2-methoxy-benzylamino)-phenyl]-isoxazol-5-ylmethyl ester]",82
11,"CCCCOc1ccc(-c2cc(COC(N)=O)on2)cc1 [Example 43, carbamic acid 3-(4-butoxy-phenyl)-isoxazol-5-ylmethyl ester]",71
12,"NC(=O)OCc1cc(-c2ccc(NCc3cccs3)cc2)no1 [Example 110, carbamic acid 3-{4-[(thiophen-2-ylmethyl)-amino]-phenyl}-isoxazol-5-ylmethyl ester]",80.7
13,"NC(=O)OCc1cc(-c2ccc(OCc3cccnc3)cc2)no1 [Example 66, Carbamic acid 3-[4-(pyridin-3-ylmethoxy)-phenyl]-isoxazol-5-ylmethyl ester]",74.9
14,"NC(=O)OCc1cc(-c2ccc(NCc3ccc(F)cc3F)cc2)no1 [Example 81, Carbamic acid 3-[4-(2,4-difluoro-benzylamino)-phenyl]-isoxazol-5-ylmethyl ester]",72.6
15,"NC(=O)OCc1cc(-c2ccc(NCc3ccc(F)c(F)c3)cc2)no1 [Example 84, Carbamic acid 3-[4-(3,4-difluoro-benzylamino)-phenyl]-isoxazol-5-ylmethyl ester]",97.7
16,"NC(=O)OCc1cc(-c2ccc(OCc3ccccc3)cc2)ns1 [Example 3, carbamic acid 3-(4-benzyloxy-phenyl)-isothiazol-5-ylmethyl ester]",70.3
17,"NC(=O)OCc1cc(-c2ccc(NCc3ccccc3)cc2)no1 [Example 74, Carbamic acid 3-(4-benzylamino-phenyl)-isoxazol-5-ylmethyl ester]",96.9

# Same assay, conditions: administration concentration 10 (10 mg/kg), oral, 7 days after MPTP; % of control group (Sham)
row,Molecule,Mobility (%)
1,[carbamic acid 3-(4-methylsulfanylmethoxy-phenyl)-isoxazol-5-ylmethyl ethyl ester [Example 48],74.6

# Test system: dopamine (DA) in the striatum of a MPTP-treated mouse
# Experiment: Combined administration with Levodopa group: dopamine in the striatum of MPTP-treated mouse (HPLC)
# Format: in vivo
# Settings: compound 1 mg/kg PO co-administered with Levodopa group (Levodopa 50 mg/kg + Benzerazide 25 mg/kg IP); 1 hr after Levodopa
# Description: MPTP (20 mg/kg, free base; Sigma, St. louis, Mo.) was administered to an 8 week old (20-25 g) male C57BL/6 test mouse intraperitoneally at the interval of 2 hours to construct a model.
# In order to observe the effects of combined administration of a compound of the present invention and Levodopa, the compound of the present invention was dissolved in a solution containing 0.02 ml of dimethylsulfoxide (DMSO), 0.02 ml of Cremophor, 0.08 ml of polyethyleneglycol (PEG), and 0.08 ml of physiological saline. The resulting solution was orally administered at doses of 1 mg/kg one week after the MPTP treatment, and a Levodopa group containing Levodopa at 50 mg/kg and Benzerazide at 25 mg/kg was intraperitoneally administered 1 hour later.
# A single administration of the Levodopa group in the following Table 4 indicates values resulting from a MPTP (toxin) treatment followed by an administration of the Levodopa group compared to the treatment results of a Levodopa single administration group of Levodopa and Benzerazide.
# At 1 hour and 3 hours after administration of Levodopa, the animals were sacrificed by cervical vertebra dislocation and the brain tissues were immediately isolated from the animals. 0.5 me of iced solution for HPLC analysis (0.1 M perchloric acid and 0.1 mM EDTA) was added to a striatum obtained from the isolated brain tissues, and an ultrasonic grinder was used to prepare a tissue homogenate. The tissue homogenate was centrifuged at 12,000 rpm for 15 minutes, and its supernatant was filtered through nitrocellulose membrane filter (0.2 um, Millipore). For HPLC analysis, uBondapak™ C18 column (4.6×150 mm, particle size 10 μm: Shisheido, Japan) was used, the flow rate of the mobile phase (0.07 M monobasic sodium phosphate, 1 mM sodium octasulfonic acid, 0.1 uM EDTA, 5% acetonitrile, pH 3.2) was maintained at 0.5 me/min, and the electrode potential of the electrochemical detector (CouloChem III, ESA, Japan) was set at 350 mV.
row,Molecule,"Concentration of dopamine compared to a control group %, 1 hr [%]"
1,"NC(=O)OCc1cc(-c2ccc(NCc3c(F)cccc3F)cc2)no1 [Example 79, Carbamic acid 3-[4-(2,6-difluoro-benzylamino)-phenyl]-isoxazol-5-ylmethyl ester]",87.6
2,"Fc1cccc(COc2ccc(-c3cc(Cn4ccnc4)on3)cc2)c1 [Example 142, 3-[4-(3-fluoro-benzyloxy)-phenyl]-5-imidazol-1-ylmethyl-isoxazole]",174.5
3,"NC(=O)OCc1cc(-c2ccc(NCc3ccc(F)c(F)c3)cc2)no1 [Example 84, Carbamic acid 3-[4-(3,4-difluoro-benzylamino)-phenyl]-isoxazol-5-ylmethyl ester]",153.7
4,"NC(=O)OCc1cc(-c2ccc(OCc3ccccc3)cc2)ns1 [Example 3, carbamic acid 3-(4-benzyloxy-phenyl)-isothiazol-5-ylmethyl ester]",173.43
5,"NC(=O)OCc1cc(-c2ccc(NCc3ccccc3)cc2)no1 [Example 74, Carbamic acid 3-(4-benzylamino-phenyl)-isoxazol-5-ylmethyl ester]",153.7

# Same assay, conditions: compound 1 mg/kg PO co-administered with Levodopa group (Levodopa 50 mg/kg + Benzerazide 25 mg/kg IP); 3 hr after Levodopa
row,Molecule,"Concentration of dopamine compared to a control group %, 3 hr [%]"
1,"NC(=O)OCc1cc(-c2ccc(NCc3c(F)cccc3F)cc2)no1 [Example 79, Carbamic acid 3-[4-(2,6-difluoro-benzylamino)-phenyl]-isoxazol-5-ylmethyl ester]",115.2
2,"Fc1cccc(COc2ccc(-c3cc(Cn4ccnc4)on3)cc2)c1 [Example 142, 3-[4-(3-fluoro-benzyloxy)-phenyl]-5-imidazol-1-ylmethyl-isoxazole]",65.5
3,"NC(=O)OCc1cc(-c2ccc(NCc3ccc(F)c(F)c3)cc2)no1 [Example 84, Carbamic acid 3-[4-(3,4-difluoro-benzylamino)-phenyl]-isoxazol-5-ylmethyl ester]",144.3
4,"NC(=O)OCc1cc(-c2ccc(OCc3ccccc3)cc2)ns1 [Example 3, carbamic acid 3-(4-benzyloxy-phenyl)-isothiazol-5-ylmethyl ester]",39.3
5,"NC(=O)OCc1cc(-c2ccc(NCc3ccccc3)cc2)no1 [Example 74, Carbamic acid 3-(4-benzylamino-phenyl)-isoxazol-5-ylmethyl ester]",74.7
